In the assay the target is human GluN1/GluN2B NMDA receptors (Homo sapiens, UniProt Q05586+Q13224). The assay can be described thus: Cell-based calcium flux (FLIPR) assay on cloned human NR1/NR2B ion channels expressed in mammalian cells. The conditions noted are these: standard assay; human GluN1/GluN2B, calcium flux (FLIPR), glutamate ~EC80. The essentials:
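Calcium influx followed by FLIPR fluorescence after 5 min compound exposure and a further 5 min co-agonist challenge: 10 μM glycine with glutamate at ~EC80 (standard) or EC40 (HTS).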
human GluN1/GluN2B NMDA receptors, sequence (Q13224 27-1484, other chains not shown): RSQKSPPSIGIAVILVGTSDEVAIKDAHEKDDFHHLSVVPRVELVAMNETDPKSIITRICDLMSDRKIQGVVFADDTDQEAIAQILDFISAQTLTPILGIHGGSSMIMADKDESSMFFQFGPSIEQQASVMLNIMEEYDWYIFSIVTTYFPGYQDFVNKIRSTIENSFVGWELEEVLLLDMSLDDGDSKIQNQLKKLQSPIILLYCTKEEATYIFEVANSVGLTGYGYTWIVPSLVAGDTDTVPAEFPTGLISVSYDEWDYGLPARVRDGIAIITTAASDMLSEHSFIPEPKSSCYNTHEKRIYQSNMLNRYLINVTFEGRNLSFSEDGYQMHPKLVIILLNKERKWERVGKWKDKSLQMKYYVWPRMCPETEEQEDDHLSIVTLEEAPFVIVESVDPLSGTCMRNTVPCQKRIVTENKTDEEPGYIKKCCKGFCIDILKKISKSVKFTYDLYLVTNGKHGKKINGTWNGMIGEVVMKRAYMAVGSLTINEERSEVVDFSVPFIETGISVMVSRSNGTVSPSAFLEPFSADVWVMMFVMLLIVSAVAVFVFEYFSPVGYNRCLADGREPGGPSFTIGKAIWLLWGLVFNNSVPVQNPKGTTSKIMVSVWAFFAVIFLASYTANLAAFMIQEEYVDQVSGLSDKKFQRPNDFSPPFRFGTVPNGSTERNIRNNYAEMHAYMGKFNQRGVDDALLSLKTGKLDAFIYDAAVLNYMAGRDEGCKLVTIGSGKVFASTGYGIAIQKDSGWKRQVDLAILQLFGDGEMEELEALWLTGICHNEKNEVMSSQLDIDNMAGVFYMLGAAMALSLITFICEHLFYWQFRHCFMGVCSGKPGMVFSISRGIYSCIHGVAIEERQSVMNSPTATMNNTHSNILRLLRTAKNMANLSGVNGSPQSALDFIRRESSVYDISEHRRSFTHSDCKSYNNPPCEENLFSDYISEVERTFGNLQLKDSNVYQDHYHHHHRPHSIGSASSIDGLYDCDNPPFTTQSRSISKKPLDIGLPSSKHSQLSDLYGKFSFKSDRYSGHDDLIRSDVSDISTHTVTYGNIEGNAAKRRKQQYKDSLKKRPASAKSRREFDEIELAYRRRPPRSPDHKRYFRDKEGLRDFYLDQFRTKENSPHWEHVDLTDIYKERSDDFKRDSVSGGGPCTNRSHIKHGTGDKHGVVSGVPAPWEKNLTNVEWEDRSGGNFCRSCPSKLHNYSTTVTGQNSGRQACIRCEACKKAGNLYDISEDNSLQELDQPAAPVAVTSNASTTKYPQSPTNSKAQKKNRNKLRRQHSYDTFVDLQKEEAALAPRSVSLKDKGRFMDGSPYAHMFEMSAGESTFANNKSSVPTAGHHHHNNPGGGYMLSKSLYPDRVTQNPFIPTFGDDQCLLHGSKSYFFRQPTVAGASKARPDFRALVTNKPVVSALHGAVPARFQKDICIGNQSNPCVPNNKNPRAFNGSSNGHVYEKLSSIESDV
For the molecule `Cc1cnc(OCc2cn(-c3ccc(Br)c(C)n3)nn2)nc1` [Example 94, 2-[[1-(5-Bromo-6-methyl-2-pyridyl)triazol-4-yl]methoxy]-5-methyl-pyrimidine], the IC50 came to 2.91 µM.
To `Fc1cnc(OCc2cn(-c3ccc(Cl)c(OC(F)F)c3)nn2)nc1` [Example 95, 2-[[1-[4-Chloro-3-(difluoromethoxy)phenyl]triazol-4-yl]methoxy]-5-fluoro-pyrimidine] belongs 0.023 µM; to `FC(F)Oc1cc(-n2cc(COc3ncc(C(F)F)cn3)nn2)ccc1Cl` [Example 96, 2-[[1-[4-Chloro-3-(difluoromethoxy)phenyl]triazol-4-yl]methoxy]-5-(difluoromethyl)pyrimidine], 0.008 µM.
To `FC(F)Oc1cc(-n2cc(CNc3ncco3)nn2)ccc1Cl` [Example 97, N-[[1-[4-Chloro-3-(difluoromethoxy)phenyl]triazol-4-yl]methyl]oxazol-2-amine] belongs 0.106 µM.
In the case of `FC(F)Oc1cc(-n2cc(CNc3ncccn3)nn2)ccc1Cl` [Example 98, N-[[1-[4-Chloro-3-(difluoromethoxy)phenyl]triazol-4-yl]methyl]pyrimidin-2-amine], the IC50 amounted to 0.331 µM.
To `Cn1cc(NCc2cn(-c3ccc(F)c(C(F)F)c3)nn2)cn1` [Example 99, N-[[1-[3-(Difluoromethyl)-4-fluoro-phenyl]triazol-4-yl]methyl]-1-methyl-pyrazol-4-amine] belongs 5.05 µM.
To `Cn1ccc(NCc2cn(-c3ccc(F)c(C(F)F)c3)nn2)n1` [Example 100, N-[[1-[3-(Difluoromethyl)-4-fluoro-phenyl]triazol-4-yl]methyl]-1-methyl-pyrazol-3-amine] belongs 0.894 µM; to `Cn1ccc(NCc2cn(-c3ccc(F)c(OC(F)F)c3)nn2)n1` [Example 101, N-[[1-[3-(Difluoromethoxy)-4-fluoro-phenyl]triazol-4-yl]methyl]-1-methyl-pyrazol-3-amine], 0.374 µM; to `Cn1cc(NCc2cn(-c3ccc(F)c(OC(F)F)c3)nn2)cn1` [Example 102, N-[[1-[3-(Difluoromethoxy)-4-fluoro-phenyl]triazol-4-yl]methyl]-1-methyl-pyrazol-4-amine], 3.25 µM.
To `COc1ncccc1OCc1cn(-c2ccc(Cl)c(OC(F)F)c2)nn1` [Example 103, 3-[[1-[4-Chloro-3-(difluoromethoxy)phenyl]triazol-4-yl]methoxy]-2-methoxy-pyridine] belongs 0.064 µM; to `Cc1ccc(OCc2cn(-c3ccc(Cl)c(OC(F)F)c3)nn2)cn1` [Example 104, 5-[[1-[4-Chloro-3-(difluoromethoxy)phenyl]triazol-4-yl]methoxy]-2-methyl-pyridine], 0.729 µM.
Consider `FC(F)Oc1cc(-n2cc(COc3ncccc3Cl)nn2)ccc1Cl` [Example 105, 3-Chloro-2-[[1-[4-chloro-3-(difluoromethoxy)phenyl]triazol-4-yl]methoxy]pyridine], for which the IC50 worked out at 0.059 µM.
`COc1cc(Cl)cnc1OCc1cn(-c2ccc(Cl)c(OC(F)F)c2)nn1` [Example 106, 5-Chloro-2-[[1-[4-chloro-3-(difluoromethoxy)phenyl]triazol-4-yl]methoxy]-3-methoxy-pyridine]: the IC50 is 0.276 µM.
To `Fc1cccnc1OCc1cn(-c2ccc(Cl)c(OC(F)F)c2)nn1` [Example 107, 2-[[1-[4-Chloro-3-(difluoromethoxy)phenyl]triazol-4-yl]methoxy]-3-fluoro-pyridine] belongs 0.119 µM; to `COc1cccnc1OCc1cn(-c2ccc(Cl)c(OC(F)F)c2)nn1` [Example 108, 2-[[1-[4-Chloro-3-(difluoromethoxy)phenyl]triazol-4-yl]methoxy]-3-methoxy-pyridine], 0.114 µM; to `FC(F)c1cc(-n2cc(CNc3ncccn3)nn2)ccc1Cl` [Example 109, N-[[1-[4-Chloro-3-(difluoromethyl)phenyl]triazol-4-yl]methyl]pyrimidin-2-amine], 1.26 µM.
To `FC(F)c1cc(-n2cc(CNc3ccncn3)nn2)ccc1Cl` [Example 110, N-[[1-[4-Chloro-3-(difluoromethyl)phenyl]triazol-4-yl]methyl]pyrimidin-4-amine] belongs 7.57 µM; to `Fc1ccc(-n2cc(COc3ccccn3)nn2)cc1C(F)F` [Example 111, 2-[[1-[3-(Difluoromethyl)-4-fluoro-phenyl]triazol-4-yl]methoxy]pyridine], 0.684 µM.
To `Fc1ccc(-n2cc(COc3ccc(Cl)cn3)nn2)cc1C(F)F` [Example 112, 5-Chloro-2-[[1-[3-(difluoromethyl)-4-fluoro-phenyl]triazol-4-yl]methoxy]pyridine] belongs 0.056 µM.
In the case of `Cc1cccc(OCc2cn(-c3ccc(F)c(C(F)F)c3)nn2)n1` [Example 113, 2-[[1-[3-(Difluoromethyl)-4-fluoro-phenyl]triazol-4-yl]methoxy]-6-methyl-pyridine], the IC50 came out at 0.038 µM.
To `Cc1ccc(OCc2cn(-c3ccc(F)c(C(F)F)c3)nn2)nc1` [Example 114, 2-[[1-[3-(Difluoromethyl)-4-fluoro-phenyl]triazol-4-yl]methoxy]-5-methyl-pyridine] belongs 0.021 µM; to `Cc1ccnc(OCc2cn(-c3ccc(F)c(C(F)F)c3)nn2)c1` [Example 115, 2-[[1-[3-(Difluoromethyl)-4-fluoro-phenyl]triazol-4-yl]methoxy]-4-methyl-pyridine], 0.17 µM; to `Cc1ccnc(OCc2cn(-c3ccc(F)c(OC(F)F)c3)nn2)c1` [Example 116, 2-[[1-[3-(Difluoromethoxy)-4-fluoro-phenyl]triazol-4-yl]methoxy]-4-methyl-pyridine], 0.102 µM.
To `Fc1ccc(-n2cc(COc3ccc(Cl)cn3)nn2)cc1OC(F)F` [Example 117, 5-Chloro-2-[[1-[3-(difluoromethoxy)-4-fluoro-phenyl]triazol-4-yl]methoxy]pyridine] belongs 0.073 µM; to `Cc1ccc(OCc2cn(-c3ccc(F)c(OC(F)F)c3)nn2)nc1` [Example 118, 2-[[1-[3-(Difluoromethoxy)-4-fluoro-phenyl]triazol-4-yl]methoxy]-5-methyl-pyridine], 0.026 µM.
For `Fc1ccc(-n2cc(COc3ccc(C(F)(F)F)cn3)nn2)cc1OC(F)F` [Example 119, 2-[[1-[3-(Difluoromethoxy)-4-fluoro-phenyl]triazol-4-yl]methoxy]-5-(trifluoromethyl)pyridine], the IC50 was 0.114 µM.
As to `Cc1cnc(OCc2cn(-c3ccc(C(F)(F)F)s3)nn2)nc1` [Example 120, 5-Methyl-2-((1-(5-(trifluoromethyl)thiophen-2-yl)-1H-1,2,3-triazol-4-yl)methoxy)pyrimidine], the IC50 is 0.005 µM.
Turning to `Cc1cnc(OCc2nnn(-c3cccc(C(F)F)c3)c2C)nc1` [Example 149], the IC50 worked out at 0.952 µM.
To `FC(F)c1cccc(-n2cc(CNc3ncc(Cl)cn3)nn2)c1` [Example 153, 5-Chloro-N-[[1-[3-(difluoromethyl)phenyl]triazol-4-yl]methyl]pyrimidin-2-amine] belongs 0.216 µM.
As for `Cc1cnc(NCc2cn(-c3ccc(Cl)c(C(F)F)c3)nn2)nc1` [Example 154, N-[[1-[4-Chloro-3-(difluoromethyl)phenyl]triazol-4-yl]methyl]-5-methyl-pyrimidin-2-amine], the IC50 worked out at 0.03 µM.
Take `Cc1cnc(OCc2cn(-c3cccc(C(F)F)c3)nn2)nc1C` [Example 155, 2-[[1-[3-(Difluoromethyl)phenyl]triazol-4-yl]methoxy]-4,5-dimethyl-pyrimidine]: the IC50 is 0.006 µM.
To `CC(=O)c1cnc(OCc2cn(-c3ccc(F)c(C(F)F)c3)nn2)nc1` [Example 156, 1-[2-[[1-[3-(Difluoromethyl)-4-fluoro-phenyl]triazol-4-yl]methoxy]pyrimidin-5-yl]ethanone] belongs 0.005 µM.
To `Fc1ccc(-n2cc(COc3ccccn3)nn2)cc1C(F)(F)F` [Example 158, 2-[[1-[4-Fluoro-3-(trifluoromethyl)phenyl]triazol-4-yl]methoxy]pyridine] belongs 3.04 µM; to `OCc1ccnc(OCc2cn(-c3cccc(C(F)F)c3)nn2)n1` [Example 159, [2-[[1-[3-(Difluoromethyl)phenyl]triazol-4-yl]methoxy]pyrimidin-4-yl]methanol], 0.408 µM; to `OCc1cnc(OCc2cn(-c3cccc(C(F)F)c3)nn2)nc1` [Example 160, [2-[[1-[3-(Difluoromethyl)phenyl]triazol-4-yl]methoxy]pyrimidin-5-yl]methanol], 0.173 µM.
To `Cc1cnc(OCc2cn(-c3cccc(C(F)F)c3)nn2)nc1N` [Example 161, 2-[[1-[3-(Difluoromethyl)phenyl]triazol-4-yl]methoxy]-5-methyl-pyrimidin-4-amine] belongs 0.055 µM; to `CNC(=O)c1ccnc(OCc2cn(-c3ccc(F)c(C(F)F)c3)nn2)n1` [Example 162, 2-[[1-[3-(Difluoromethyl)-4-fluoro-phenyl]triazol-4-yl]methoxy]-N-methyl-pyrimidine-4-carboxamide], above 2.99 µM; to `Fc1ccc(-n2cc(COc3ncc(Cl)cn3)nn2)cc1` [Example 164, 5-Chloro-2-[[1-(4-fluorophenyl)triazol-4-yl]methoxy]pyrimidine], 0.371 µM.
With `Fc1ccc(-n2cc(COc3ncc(N4CCC4)cn3)nn2)cc1OC(F)F` [Example 165, 5-(Azetidin-1-yl)-2-[[1-[3-(difluoromethoxy)-4-fluoro-phenyl]triazol-4-yl]methoxy]pyrimidine], the IC50 is 0.016 µM.
To `Fc1ccc(-n2cc(COc3nccc(N4CCC(F)(F)C4)n3)nn2)cc1OC(F)F` [Example 166, 2-[[1-[3-(Difluoromethoxy)-4-fluoro-phenyl]triazol-4-yl]methoxy]-4-(3,3-difluoropyrrolidin-1-yl)pyrimidine] belongs 0.144 µM.
To `Nc1nc(OCc2cn(-c3ccc(F)c(OC(F)F)c3)nn2)ncc1F` [Example 167, 2-((1-(3-(Difluoromethoxy)-4-fluorophenyl)-1H-1,2,3-triazol-4-yl)methoxy)-5-fluoropyrimidin-4-amine] belongs 0.013 µM.
